Laboratory results: patent US10144947B2, “Method for detecting, identifying and enumerating micro-organisms in a porous support dry-impregnated with a dehydrated reaction medium” (BIOMÉRIEUX, priority 2014, dated 2018)
Read-outs that look alike come from different tables or passages of the source. Each block holds one molecule with its values, some of them ahead of it.

Experiments:
[1] = test system: Pseudomonas aeruginosa ATCC 27853; assay: Growth (colony count) on ChromID CPS3 with 1 mg/l imipenem, agar medium or impregnated porous support; type: cell-based; conditions: for CFU/ml, ChromID CPS3 with 1 mg/l imipenem: starting concentration 10^3 CFU/ml; for CFU, ChromID CPS3 with 1 mg/l imipenem: starting concentration 10^5 CFU/ml
Protocol: (§1) To produce the agar media, a liter of water is added to the test specimen of the dry medium, i.e. 38.3 g for ChromID CPS3. The dry medium is then dissolved with stirring, brought to the boil then sterilized by autoclaving. After cooling the agar medium to 55° C., the imipenem sterilized by filtration is added at a concentration of 1 mg/l. To carry out impregnation according to the present invention of the dry medium Chrom ID CPS3, a test specimen of the dry medium corresponding to the manufacture of one liter of medium is taken, i.e. 26 g, to which test specimen xanthan (20 g) and imipenem […] are added. All the constituents are then mixed together in a Turbula®. The porous supports are then impregnated by the culture media powder produced as described above and sterilized by gamma radiation between 10 and 17 kGy.

[2] = test system: Pseudomonas aeruginosa ATCC 27853; assay: MIC of imipenem for the strain used; type: cell-based; conditions: ATCC27853, Pseudomonas aeruginosa ATCC 27853, as stated in the conclusion
[3] = test system: E. coli ATCC 25922; assay: Growth (colony count) on ChromID CPS3 with 1 mg/l imipenem, agar medium or impregnated porous support; type: cell-based, Escherichia coli
Protocol: as §1

[4] = test system: E. coli ATCC 25922; assay: MIC of imipenem for the strain used; type: cell-based; conditions: Escherichia coli, ATCC25922, as stated in the conclusion
[5] = test system: Proteus mirabilis API 8803080; assay: MIC of ciprofloxacin for the strain tested; type: cell-based; conditions: listed as Ci
[6] = test system: Proteus mirabilis API 9406037; assay: Growth on MH2 or ChromID CPS3 with 1.5 mg/l ciprofloxacin, agar medium or impregnated porous support; type: cell-based; design: key to growth on MH2 Agar medium + 1.5 mg/l Ci / growth on Impregnation of porous support with MH2 + 1.5 mg/l Ci / growth on ChromID CPS3 Agar medium + 1.5 mg/l Ci / growth on Impregnation of porous support with ChromID CPS3 + 1.5 mg/l Ci: ++: grow; −−: do not grow
Protocol: (§2) To produce the agar media, a liter of water is added to the test specimen of the dry medium, i.e. 38.3 g for ChromID CPS3 and 41.57 g for the Muller Hinton 2 medium. The dry medium is then dissolved with magnetic stirring, brought to the boil then sterilized by autoclaving. […]. The whole thing is then mixed together in a Turbula®. The porous supports are then impregnated with the culture media powders as described above and sterilized by gamma radiation between 10 and 17 kGy.

[7] = test system: Proteus vulgaris API 8803017; assay: as above; type: cell-based; design: key to growth on MH2 Agar medium + 1.5 mg/l Ci / growth on Impregnation of porous support with MH2 + 1.5 mg/l Ci / growth on ChromID CPS3 Agar medium + 1.5 mg/l Ci / growth on Impregnation of porous support with ChromID CPS3 + 1.5 mg/l Ci: ++: grow; −−: do not grow
Protocol: as §2

[8] = test system: Pseudomonas aeruginosa API 9405063; assay: as above; type: cell-based; design: key to growth on MH2 Agar medium + 1.5 mg/l Ci / growth on Impregnation of porous support with MH2 + 1.5 mg/l Ci / growth on ChromID CPS3 Agar medium + 1.5 mg/l Ci / growth on Impregnation of porous support with ChromID CPS3 + 1.5 mg/l Ci: ++: grow; −−: do not grow
Protocol: as §2

[9] = test system: Pseudomonas aeruginosa API 9405061; assay: as above; type: cell-based; design: key to growth on MH2 Agar medium + 1.5 mg/l Ci / growth on Impregnation of porous support with MH2 + 1.5 mg/l Ci / growth on ChromID CPS3 Agar medium + 1.5 mg/l Ci / growth on Impregnation of porous support with ChromID CPS3 + 1.5 mg/l Ci: ++: grow; −−: do not grow
Protocol: as §2

[10] = test system: Proteus mirabilis API 8803080; assay: as above; type: cell-based; design: key to growth on MH2 Agar medium + 1.5 mg/l Ci / growth on Impregnation of porous support with MH2 + 1.5 mg/l Ci / growth on ChromID CPS3 Agar medium + 1.5 mg/l Ci / growth on Impregnation of porous support with ChromID CPS3 + 1.5 mg/l Ci: ++: grow; −−: do not grow
Protocol: as §2

[11] = test system: Proteus mirabilis API 8803099; assay: as above; type: cell-based; design: key to growth on MH2 Agar medium + 1.5 mg/l Ci / growth on Impregnation of porous support with MH2 + 1.5 mg/l Ci / growth on ChromID CPS3 Agar medium + 1.5 mg/l Ci / growth on Impregnation of porous support with ChromID CPS3 + 1.5 mg/l Ci: ++: grow; −−: do not grow
Protocol: as §2

[12] = test system: Pseudomonas aeruginosa API 7509005; assay: as above; type: cell-based; design: key to growth on MH2 Agar medium + 1.5 mg/l Ci / growth on Impregnation of porous support with MH2 + 1.5 mg/l Ci / growth on ChromID CPS3 Agar medium + 1.5 mg/l Ci / growth on Impregnation of porous support with ChromID CPS3 + 1.5 mg/l Ci: ++: grow; −−: do not grow
Protocol: as §2

[13] = test system: Pseudomonas aeruginosa API 9410075; assay: as above; type: cell-based; design: key to growth on MH2 Agar medium + 1.5 mg/l Ci / growth on Impregnation of porous support with MH2 + 1.5 mg/l Ci / growth on ChromID CPS3 Agar medium + 1.5 mg/l Ci / growth on Impregnation of porous support with ChromID CPS3 + 1.5 mg/l Ci: ++: grow; −−: do not grow
Protocol: as §2

[14] = test system: Pseudomonas aeruginosa API 9405063; assay: MIC of ciprofloxacin for the strain tested; type: cell-based; conditions: P. aeruginosa API 9405063; listed as Ci
[15] = test system: Proteus mirabilis API 9406037; assay: MIC of ciprofloxacin for the strain tested; type: cell-based; conditions: listed as Ci
[16] = test system: Pseudomonas aeruginosa API 7509005; assay: MIC of ciprofloxacin for the strain tested; type: cell-based; conditions: P. aeruginosa API 7509005; listed as Ci
[17] = test system: Proteus vulgaris API 8803017; assay: MIC of ciprofloxacin for the strain tested; type: cell-based; conditions: API8803017
[18] = test system: Proteus mirabilis API 8803099; assay: MIC of ciprofloxacin for the strain tested; type: cell-based
[19] = test system: Pseudomonas aeruginosa API 9410075; assay: MIC of ciprofloxacin for the strain tested; type: cell-based; conditions: P. aeruginosa API 9410075; listed as Ci
[20] = test system: Pseudomonas aeruginosa API 9405061; assay: MIC of ciprofloxacin for the strain tested; type: cell-based; conditions: P. aeruginosa API 9405061
[21] = porous support according to the invention
[22] = ChromID CPS3 agar medium, 1.5 mg/l ciprofloxacin
[23] = MH2 agar medium, 1.5 mg/l ciprofloxacin
[24] = all the agar or impregnated media, ciprofloxacin 1.5 g/1 [sic]
[25] = porous support impregnated with ChromID CPS3, 1.5 mg/l ciprofloxacin
[26] = porous support impregnated with MH2, 1.5 mg/l ciprofloxacin
[27] = MH2 and ChromID CPS3, agar and porous support, 1.5 mg/l ciprofloxacin

- MIC [2]: 2 µg/mL
- MIC [4]: 0.12 µg/mL
SMILES: C[C@@H](O)[C@H]1C(=O)N2C(C(=O)O)=C(SCCN=CN)C[C@H]12 [imipenem]
- CFU/ml, ChromID CPS3 with 1 mg/l imipenem ([1]; ChromID CPS3 agar): 677 CFU/ml
- CFU, ChromID CPS3 with 1 mg/l imipenem ([1]; ChromID CPS3 agar): ≥300 colonies
- CFU/ml, ChromID CPS3 with 1 mg/l imipenem [1, 21]: 453 CFU/ml
- CFU, ChromID CPS3 with 1 mg/l imipenem [1, 21]: ≥300 colonies
- CFU/ml, ChromID CPS3 with 1 mg/l imipenem ([3]; ChromID CPS3 agar, starting concentration 10^3 CFU/ml): 0 CFU/ml
- CFU/ml, ChromID CPS3 with 1 mg/l imipenem ([3]; ChromID CPS3 agar, starting concentration 10^5 CFU/ml): 0 CFU/ml
- CFU/ml, ChromID CPS3 with 1 mg/l imipenem ([3]; porous support according to the invention, starting concentration 10^3 CFU/ml): 0 CFU/ml
- CFU/ml, ChromID CPS3 with 1 mg/l imipenem ([3]; porous support according to the invention, starting concentration 10^5 CFU/ml): 0 CFU/ml

- MIC [5]: 0.38 to 0.5 µg/mL
- MIC [14]: 6 to 8 µg/mL
- MIC [15]: 8 to 12 µg/mL
- MIC [16]: 0.25 µg/mL
- MIC [17]: < 1.5 µg/mL
- MIC [18]: less than 1.5 mg/l
- MIC ([18]; listed as Ci): 0.032 µg/mL
- MIC [19]: >32 µg/mL
- MIC [20]: less than 1.5 mg/l
- MIC ([20]; listed as Ci): 0.25 µg/mL
SMILES: O=C(O)c1cn(C2CC2)c2cc(N3CCNCC3)c(F)cc2c1=O [ciprofloxacin, Ciprofloxacin]
- growth on ChromID CPS3 Agar medium + 1.5 mg/l Ci [6, 22]: ++
- growth on MH2 Agar medium + 1.5 mg/l Ci [6, 23]: ++
- growth on agar media and impregnated porous supports with ciprofloxacin (in words) [6, 24]: grow
- growth on Impregnation of porous support with ChromID CPS3 + 1.5 mg/l Ci [6, 25]: ++
- growth on Impregnation of porous support with MH2 + 1.5 mg/l Ci [6, 26]: ++
- growth on ChromID CPS3 Agar medium + 1.5 mg/l Ci [7, 22]: −−
- growth on MH2 Agar medium + 1.5 mg/l Ci [7, 23]: −−
- growth on agar media and impregnated porous supports with ciprofloxacin (in words) [7, 27]: do not grow
- growth on Impregnation of porous support with ChromID CPS3 + 1.5 mg/l Ci [7, 25]: −−
- growth on Impregnation of porous support with MH2 + 1.5 mg/l Ci [7, 26]: −−
- growth on ChromID CPS3 Agar medium + 1.5 mg/l Ci [8, 22]: ++
- growth on MH2 Agar medium + 1.5 mg/l Ci [8, 23]: ++
- growth on agar media and impregnated porous supports with ciprofloxacin (in words) [8, 24]: grow
- growth on Impregnation of porous support with ChromID CPS3 + 1.5 mg/l Ci [8, 25]: ++
- growth on Impregnation of porous support with MH2 + 1.5 mg/l Ci [8, 26]: ++
- growth on ChromID CPS3 Agar medium + 1.5 mg/l Ci [9, 22]: −−
- growth on MH2 Agar medium + 1.5 mg/l Ci [9, 23]: −−
- growth on agar media and impregnated porous supports with ciprofloxacin (in words) [9, 27]: do not grow
- growth on Impregnation of porous support with ChromID CPS3 + 1.5 mg/l Ci [9, 25]: −−
- growth on Impregnation of porous support with MH2 + 1.5 mg/l Ci [9, 26]: −−
- growth on ChromID CPS3 Agar medium + 1.5 mg/l Ci [10, 22]: −−
- growth on MH2 Agar medium + 1.5 mg/l Ci [10, 23]: −−
- growth on agar media and impregnated porous supports with ciprofloxacin (in words) [10, 27]: do not grow
- growth on Impregnation of porous support with ChromID CPS3 + 1.5 mg/l Ci [10, 25]: −−
- growth on Impregnation of porous support with MH2 + 1.5 mg/l Ci [10, 26]: −−
- growth on ChromID CPS3 Agar medium + 1.5 mg/l Ci [11, 22]: −−
- growth on MH2 Agar medium + 1.5 mg/l Ci [11, 23]: −−
- growth on agar media and impregnated porous supports with ciprofloxacin (in words) [11, 27]: do not grow
- growth on Impregnation of porous support with ChromID CPS3 + 1.5 mg/l Ci [11, 25]: −−
- growth on Impregnation of porous support with MH2 + 1.5 mg/l Ci [11, 26]: −−
- growth on ChromID CPS3 Agar medium + 1.5 mg/l Ci [12, 22]: −−
- growth on MH2 Agar medium + 1.5 mg/l Ci [12, 23]: −−
- growth on agar media and impregnated porous supports with ciprofloxacin (in words) [12, 27]: do not grow
- growth on Impregnation of porous support with ChromID CPS3 + 1.5 mg/l Ci [12, 25]: −−
- growth on Impregnation of porous support with MH2 + 1.5 mg/l Ci [12, 26]: −−
- growth on ChromID CPS3 Agar medium + 1.5 mg/l Ci [13, 22]: ++
- growth on MH2 Agar medium + 1.5 mg/l Ci [13, 23]: ++
- growth on agar media and impregnated porous supports with ciprofloxacin (in words) [13, 24]: grow
- growth on Impregnation of porous support with ChromID CPS3 + 1.5 mg/l Ci [13, 25]: ++
- growth on Impregnation of porous support with MH2 + 1.5 mg/l Ci [13, 26]: ++
